Biological target: Yck2-HA (HA-tagged Yck2) (Candida albicans, UniProt A0A1D8PKB4)
Test: ADP-Glo kinase assay on immunoprecipitated Yck2-HA beads
Assay type: biochemical
Settings: 25 μM ATP, 0.2 mg/mL casein kinase I peptide substrate, pH 7.5, 30°C; little effect

SMILES: CN[C@@H]1C[C@H]2O[C@@](C)([C@@H]1OC)n1c3ccccc3c3c4c(c5c6ccccc6n2c5c31)C(=O)NC4 [STS, staurosporine]
- concentration-dependent inhibition: the promiscuous PKI, staurosporine had little effect on Yck2 activity

— paper PMC7093242 (Cell chemical biology, 2020)
